Reference: patent US8394825B2, “Compound” (Sterix Limited, priority 2007, dated 2013)

Compound | melting point [°C]
COc1cc2c(cc1O[Si](C(C)C)(C(C)C)C(C)C)CCN(Cc1cccc([N+](=O)[O-])c1)C2 | 57.3 to 58.6
COc1cc2c(cc1OCc1ccccc1)CCN(Cc1cccc(O[Si](C(C)C)(C(C)C)C(C)C)c1)C2 | 78 to 79
COc1cc2c(cc1OCc1ccccc1)CCN(Cc1ccc(C#N)cc1)C2 [29A, 6-Benzyloxy-2-(4-cyanobenzyl)-7-methoxy-1,2,3,4-tetrahydroisoquinoline] | 161 to 162
COC(=O)c1cccc(CN2CCc3cc(O)c(OC)cc3C2)c1 [70A, 2-(3-(Methoxycarbonyl)benzyl)-6-hydroxy-7-methoxy-1,2,3,4-tetrahydroisoquinoline] | 156 to 158
COC(=O)c1ccccc1S(=O)(=O)N1CCc2cc(O)c(OC)cc2C1 [186A, 7-Methoxy-2-(2-(methoxycarbonyl)benzenesulfonyl)-6-hydroxy-1,2,3,4-tetrahydroisoquinoline] | 134 to 138
COc1cc2c(cc1O)CCN(S(=O)(=O)c1cccc(CC(=O)O)c1)C2=O [203A, 6-Hydroxy-7-methoxy-2-(3-carboxymethyl-benzenesulfonyl)-3,4-dihydro-2H-isoquinolin-1-one] | 236 to 239
Oc1ccc2c(c1)CCN(Cc1ccc3c(c1)OCO3)C2 [B2, 2-Piperonyl-1,2,3,4-tetrahydroisoquinolin-6-ol] | 63 to 87
CCOc1cccc(C(=O)N2CCc3cc(O)ccc3C2)c1 [B4, 2-(3-Ethoxybenzoyl)-1,2,3,4-tetrahydroisoquinolin-6-ol] | 150 to 151
COc1cc(CC(=O)N2CCc3cc(O)ccc3C2)cc(OC)c1OC [B5, 2-(3,4,5-Trimethoxyphenylacetyl)-1,2,3,4-tetrahydroisoquinolin-6-ol] | 37 to 53
CCOc1ccc(C(=O)N2CCc3cc(O)ccc3C2)cc1OCC [B6, 2-(3,4-Diethoxybenzoyl)-1,2,3,4-tetrahydroisoquinolin-6-ol] | 149 to 160
COc1ccc(OC)c(C(=O)N2CCc3cc(O)ccc3C2)c1 [B7, 2-(2,5-Dimethoxybenzoyl)-1,2,3,4-tetrahydroisoquinolin-6-ol] | 61 to 86
COc1ccc(C(=O)N2CCc3cc(O)ccc3C2)c(OC)c1 [B8, 2-(2,4-Dimethoxybenzoyl)-1,2,3,4-tetrahydroisoquinolin-6-ol] | 62 to 87
COc1cccc(C(=O)N2CCc3cc(O)ccc3C2)c1OC [B9, 2-(2,3-Dimethoxybenzoyl)-1,2,3,4-tetrahydroisoquinolin-6-ol] | 167 to 172
COc1ccc(C(=O)N2CCc3cc(O)ccc3C2)cc1OC [B10, 2-(3,4-Dimethoxybenzoyl)-1,2,3,4-tetrahydroisoquinolin-6-ol] | 58 to 77
COc1cc(OC)c(C(=O)N2CCc3cc(O)ccc3C2)cc1OC [B11, 2-(2,4,5-Trimethoxybenzoyl)-1,2,3,4-tetrahydroisoquinolin-6-ol] | 180 to 188
CCOc1cc(C(=O)N2CCc3cc(O)ccc3C2)cc(OCC)c1OCC [B14, 2-(3,4,5-Triethoxybenzoyl)-1,2,3,4-tetrahydroisoquinolin-6-ol] | 158
COc1ccccc1CN1CCc2cc(O)ccc2C1 [B16, 2-(2-Methoxybenzyl)-1,2,3,4-tetrahydroisoquinolin-6-ol] | 148 to 155
COc1ccc(CN2CCc3cc(O)ccc3C2)cc1 [B17, 2-(4-methoxybenzyl)-1,2,3,4-tetrahydroisoquinolin-6-ol] | 158 to 160
CCOc1cccc(CN2CCc3cc(O)ccc3C2)c1 [B18, 2-(3-Ethoxybenzyl)-1,2,3,4-tetrahydroisoquinolin-6-ol] | 120 to 121
COc1ccc(OC)c(CN2CCc3cc(O)ccc3C2)c1 [B19, 2-(2,5-Dimethoxybenzyl)-1,2,3,4-tetrahydroisoquinolin-6-ol] | 178 to 192
COc1cc(CN2CCc3cc(O)ccc3C2)cc(OC)c1 [B20, 2-(3,5-Dimethoxybenzyl)-1,2,3,4-tetrahydroisoquinolin-6-ol] | 189 to 195
COc1cccc(CN2CCc3cc(O)ccc3C2)c1OC [B21, 2-(2,3-Dimethoxybenzyl)-1,2,3,4-tetrahydroisoquinolin-6-ol] | 111 to 115
CCOc1ccc(CN2CCc3cc(O)ccc3C2)cc1OCC [B22, 2-(3,4-Diethoxybenzyl)-1,2,3,4-tetrahydroisoquinolin-6-ol] | 150 to 154
COc1ccc(CN2CCc3cc(O)ccc3C2)cc1OC [B23, 2-(3,4-Dimethoxybenzyl)-1,2,3,4-tetrahydroisoquinolin-6-ol] | 119 to 122
Oc1ccc2c(c1)CCN(Cc1ccc3c(c1)OCO3)C2 [B24, 2-(Benzo[d][1,3]dioxol-5-ylmethyl)-1,2,3,4-tetrahydroisoquinolin-6-ol] | 169 to 172

Compound | melting point [°C]
COc1ccc(CN2CCc3cc(O)ccc3C2)c(OC)c1 [B25, 2-(2,4-Dimethoxybenzyl)-1,2,3,4-tetrahydroisoquinolin-6-ol] | 149 to 152
COc1cc(OC)c(OC)cc1CN1CCc2cc(O)ccc2C1 [B26, 2-(2,4,5-Trimethoxybenzyl)-1,2,3,4-tetrahydroisoquinolin-6-ol] | 188 to 191
CCOc1cc(CN2CCc3cc(O)ccc3C2)cc(OCC)c1OCC [B27, 2-(3,4,5-triethoxybenzyl)-1,2,3,4-tetrahydroisoquinolin-6-ol] | 140 to 142
COc1cc(O)c(CN2CCc3cc(O)ccc3C2)c(OC)c1 [B28, 2-(2-Hydroxy-4,6-dimethoxybenzyl)-1,2,3,4-tetrahydroisoquinolin-6-ol] | 109 to 112
COc1cc(CCN2CCc3cc(O)ccc3C2)cc(OC)c1OC [B29, 2-(3,4,5-Trimethoxyphenethyl)-1,2,3,4-tetrahydroisoquinolin-6-ol] | 180 to 186
COc1cc(OC)c(C(=O)N2CCc3cc(OCc4ccccc4)c(OC)cc3C2)c(OC)c1 [F1, 6-Benzyloxy-7-methoxy-2-(2,4,6-trimethoxybenzoyl)-1,2,3,4-tetrahydroisoquinoline] | 70 to 72
COc1cc(OC)c(CN2CCc3cc(OCc4ccccc4)c(OC)cc3C2)c(OC)c1 [F2, 6-Benzyloxy-7-methoxy-2-(2,4,6-trimethoxybenzyl)-1,2,3,4-tetrahydroisoquinoline] | 129 to 131
COc1cc(OC)c(CN2CCc3cc(O)c(OC)cc3C2)c(OC)c1 [F3, 7-Methoxy-2-(2,4,6-trimethoxybenzyl)-1,2,3,4-tetrahydroisoquinolin-6-ol] | 150 to 151
COc1cc2c(cc1OCc1ccccc1)CCN(Cc1cc(F)cc(F)c1)C2 [F5, 6-Benzyloxy-2-(3,5-difluorobenzyl)-7-methoxy-1,2,3,4-tetrahydroisoquinoline] | 116 to 117
COc1cc2c(cc1O)CCN(Cc1cc(F)cc(F)c1)C2 [F6, 2-(3,5-Difluorobenzyl)-7-methoxy-1,2,3,4-tetrahydroisoquinolin-6-ol] | 110 to 111
COc1cccc(CN2Cc3cc(OC)c(OCc4ccccc4)cc3C(O)C2)c1 (stereo not shown) [F17, 6-Benzyloxy-7-methoxy-2-(3-methoxybenzyl)-1,2,3,4-tetrahydroisoquinolin-4-ol] | 115 to 116
COc1ccccc1CN1Cc2cc(OC)c(OCc3ccccc3)cc2C(OC)C1 (stereo not shown) [F19, 6-Benzyloxy-4,7-dimethoxy-2-(2-methoxybenzyl)-1,2,3,4-tetrahydroisoquinoline] | 101 to 102
COc1cccc(CN2Cc3cc(OC)c(OCc4ccccc4)cc3C(OC)C2)c1 (stereo not shown) [F20, 6-Benzyloxy-4,7-dimethoxy-2-(3-methoxybenzyl)-1,2,3,4-tetrahydroisoquinoline] | 96 to 97
COc1cc2c(cc1OCc1ccccc1)C(OC)CN(Cc1cc(OC)c(OC)c(OC)c1)C2 (stereo not shown) [F22, 6-Benzyloxy-4,7-dimethoxy-2-(3,4,5-trimethoxybenzyl)-1,2,3,4-tetrahydroisoquinoline] | 89 to 90
CCOC1CN(Cc2ccc(OC)cc2)Cc2cc(OC)c(OCc3ccccc3)cc21 (stereo not shown) [F25, 6-Benzyloxy-4-ethoxy-7-methoxy-2-(4-methoxybenzyl)-1,2,3,4-tetrahydroisoquinoline] | 84 to 85
CCOC1CN(Cc2cc(OC)c(OC)c(OC)c2)Cc2cc(OC)c(OCc3ccccc3)cc21 (stereo not shown) [F26, 6-Benzyloxy-4-ethoxy-7-methoxy-2-(3,4,5-trimethoxybenzyl)-1,2,3,4-tetrahydro-isoquinoline] | 132 to 133
COc1cccc(CN2Cc3cc(OC)c(O)cc3C(O)C2)c1 (stereo not shown) [F28, 7-Methoxy-2-(3-methoxybenzyl)-1,2,3,4-tetrahydroisoquinoline-4,6-diol] | 137 to 138
COc1cc2c(cc1O)C(O)CN(Cc1cc(OC)c(OC)c(OC)c1)C2 (stereo not shown) [F29, 7-Methoxy-2-(3,4,5-trimethoxybenzyl)-1,2,3,4-tetrahydroisoquinoline-4,6-diol] | 62 to 63
COc1cc2c(cc1O)C(OC)CN(Cc1ccccc1OC)C2 (stereo not shown) [F30, 4,7-Dimethoxy-2-(2-methoxybenzyl)-1,2,3,4-tetrahydro-isoquinolin-6-ol] | 45 to 47
COc1cccc(CN2Cc3cc(OC)c(O)cc3C(OC)C2)c1 (stereo not shown) [F31, 4,7-Dimethoxy-2-(3-methoxybenzyl)-1,2,3,4-tetrahydro-isoquinolin-6-ol] | 133 to 134
COc1ccc(CN2Cc3cc(OC)c(O)cc3C(OC)C2)cc1 (stereo not shown) [F32, 4,7-Dimethoxy-2-(4-methoxybenzyl)-1,2,3,4-tetrahydro-isoquinolin-6-ol] | 84 to 85
COc1cc2c(cc1O)C(OC)CN(Cc1cc(OC)c(OC)c(OC)c1)C2 (stereo not shown) [F33, 4,7-Dimethoxy-2-(3,4,5-trimethoxybenzyl)-1,2,3,4-tetrahydro-isoquinolin-6-ol] | 51 to 54
CCOC1CN(Cc2ccccc2OC)Cc2cc(OC)c(O)cc21 (stereo not shown) [F34, 4-Ethoxy-7-methoxy-2-(2-methoxybenzyl)-1,2,3,4-tetrahydroisoquinolin-6-ol] | 101 to 102
CCOC1CN(Cc2cccc(OC)c2)Cc2cc(OC)c(O)cc21 (stereo not shown) [F35, 4-Ethoxy-7-methoxy-2-(3-methoxy-benzyl)-1,2,3,4-tetrahydroisoquinolin-6-ol] | 134 to 135
